# Measured values from US20200270309A1, “MALEIMIDE GROUP-MODIFIED ANGIOGENESIS INHIBITOR HM-1 AND USE THEREOF” (NANJING ANJI BIOLOGICAL TECHNOLOGY CO., LTD, priority 2017, published 2020).
# Marks after values point to notes of the source that are not given here. Peptide text beside a SMILES is read from it. * marks the point of attachment. X65 = O=C1C=CC(=O)N1c1cccc(CCCCCCCCCCCCC(=O)*)c1; X66 = O=C1C=CC(=O)N1c1cccc(CCCCCCCC(=O)*)c1; X71 = O=C1C=CC(=O)N1c1cccc(CCCCCC(=O)*)c1; X49 = O=C1C=CC(=O)N1c1ccccc1CCCCCC(=O)*
# Assays:
# [1] = Half-lives and pharmacokinetic parameters of polypeptides vs HM-1; conditions: in vivo; for half-life: T1/2β (half-life)
# splenic lymphocytes = assay: Proliferation of splenic lymphocytes in mice (ConA, MTT); type: cell-based; conditions: ConA-stimulated mouse splenic lymphocytes, 48 h
# Outline: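 Proliferation read as OD 570 nm after 4 h MTT and DMSO solubilisation, five parallel wells. Before that, ConA-stimulated splenic lymphocytes from mice, 5×10^6 cells/mL in 10% calf serum RPMI 1640, were cultured 48 h at 37° C. with different peptide concentrations; controls were blank, ConA alone and dexamethasone.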
# [2] = tested on: human retinal capillary endothelial cells (HRCECs); assay: MTT proliferation inhibition on HRCECs; type: cell-based; conditions: 48 h; for A570 nm-A630 nm: mean±SD
# Outline: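 HRCECs seeded at 3.0×10^4 cells/mL, adhered overnight, then exposed to polypeptide for 48 h at 37 °C, 5% CO2. MTT added 4 h, formazan dissolved in DMSO, absorbance 570/630 nm; PIR (%) = 1 − treated/negative control, mean±SD of three independent runs.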
# [3] = tested on: carrageenan-induced toe swelling; assay: Carrageenan-induced toe swelling in rats; type: in vivo; conditions: SD rats; for Swelling degree 1 h: 1 h after carrageenan; for Swelling degree 3 h: 3 h after carrageenan; for Swelling degree 5 h: 5 h after carrageenan; for Swelling degree 7 h: 7 h after carrageenan
# Outline: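 Paw swelling, in mL, is the post-inflammation minus pre-inflammation volume of the right hind foot, read as overflow liquid when immersed to a pen-marked joint. Treatment was daily injection over 3 d; model group received saline of the same volume.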
# adjuvant arthritis = assay: Rat adjuvant arthritis (AA) animal model; type: in vivo, SD rats; conditions: 4.0 mg/kg; for Clinical score: intravenous in the tail once every five days from day 10, four paws scored 0-4, max 16, mean±SD; for Joint swelling degree / Left and right paw swelling degree: intravenous in the tail once every five days from day 10, mean±SD
# [4] = tested on: choroidal neovascularization; assay: Choroidal neovascularization in rats (laser photocoagulation, FFA); type: in vivo; conditions: BN rats
# Procedure: 6-8 weeks male BN rats were fully anesthetized by intraperitoneal injection of 846 compound anesthetic with a concentration of 0.5 mL/kg. Compound tropicamide eye drops were used once 5 min before laser photocoagulation to fully dilate the pupils of both eyes. The animals were fixed and subjected to krypton laser photocoagulation equidistantly around an optic disc with the aid of a −53.00D corneal contact lens at a distance of 2PD from the optic disc. A total of 8 photocoagulation spots were obtained. The laser wavelength was 647.1 nm, the power was 350 mW, and the diameter and time of the photocoagulation spots were 50 μm and 0.05 s respectively. Fundus photography was performed immediately after photocoagulation. FFA, histopathology and transmission electron microscopy were performed on the days 3, 7, 14, 21 and 28 after photocoagulation respectively.
# Through fundus photography and FFA examination, it was confirmed that the fluorescein leakage of the photocoagulation spot reached its peak on day 21 after photocoagulation. At the same time, histopathological examination was carried out.
# Rats with successful modeling were randomly grouped, with 5 rats in each group. The groups were marked as a negative control group and X1-X90 treatment groups respectively. The rats were injected with normal saline and X1-X90 (the doses of X1-X90 were each 0.05 μM) in the vitreous chamber once a day for 1 week. FFA examination was carried out 3 days, 7 days, 14 days and 28 days after administration.
# [5] = day 3 after administration, total light spot number was 297, 0.05 μM in the vitreous chamber once a day for 1 week
# [6] = day 7 after administration, total light spot number was 186, 0.05 μM in the vitreous chamber once a day for 1 week
# [7] = day 14 after administration, total light spot number was 137, 0.05 μM in the vitreous chamber once a day for 1 week
# [8] = day 28 after administration, total light spot number was 69, 0.05 μM in the vitreous chamber once a day for 1 week
SMILES,AUC(0-inf) [1] [ng·h/mL],MRT inf [1] [h],clearance [1] [mL/min/kg],half-life [1] [h],A570 nm/A630 nm (splenic lymphocytes; polypeptide dose 0.05 μM),Inhibition rate (%) (splenic lymphocytes; polypeptide dose 0.05 μM),A570 nm/A630 nm (splenic lymphocytes; polypeptide dose 0.1 μM),Inhibition rate (%) (splenic lymphocytes; polypeptide dose 0.1 μM),A570 nm/A630 nm (splenic lymphocytes; polypeptide dose 0.2 μM),Inhibition rate (%) (splenic lymphocytes; polypeptide dose 0.2 μM),Inhibition rate (%) ([2]; dose 0.05 μM) [%*],A570 nm-A630 nm ([2]; dose 0.05 μM),Inhibition rate (%) ([2]; dose 0.1 μM) [%**],A570 nm-A630 nm ([2]; dose 0.1 μM),Inhibition rate (%) ([2]; dose 0.2 μM) [%*],A570 nm-A630 nm ([2]; dose 0.2 μM),Swelling degree 1 h ([3]; 2.0 mg/kg once a day for 3 d) [mg],Swelling degree 3 h ([3]; 2.0 mg/kg once a day for 3 d) [mg],Swelling degree 5 h ([3]; 2.0 mg/kg once a day for 3 d) [mg],Swelling degree 7 h ([3]; 2.0 mg/kg once a day for 3 d) [mg],other results
C[C@H](NC(=O)CNC(=O)[C@H](CCCNC(=N)N)NC(=O)CCCCCc1ccccc1N1C(=O)C=CC1=O)C(=O)N[C@@H](CC(=O)O)C(=O)N[C@@H](CCCNC(=N)N)C(=O)N[C@@H](C)C(=O)NCC(=O)NCC(=O)NCC(=O)NCC(=O)N[C@@H](CCCNC(=N)N)C(=O)NCC(=O)N[C@@H](CC(=O)O)C(=O)O [X17] (X49-RGADRAGGGGRGD-OH),30000 ± 7060,53.8 ± 12.3,0.555,37.26 ± 0.29,0.6219 ± 0.0629,7.92,0.5484 ± 0.1109,18.80,0.5025 ± 0.0957,25.60,55.10,0.5934 ± 0.03887,62.16,0.5001 ± 0.02347,65.08,0.4616 ± 0.02184,0.27 ± 0.15,0.32 ± 0.14,0.38 ± 0.17,0.35 ± 0.19,"Swelling degree 1 h ([3]; 4.0 mg/kg once a day for 3 d): 0.24 ± 0.12 mg; Swelling degree 3 h ([3]; 4.0 mg/kg once a day for 3 d): 0.31 ± 0.19 mg; Swelling degree 5 h ([3]; 4.0 mg/kg once a day for 3 d): 0.37 ± 0.17 mg; Swelling degree 7 h ([3]; 4.0 mg/kg once a day for 3 d): 0.34 ± 0.15 mg; Clinical score (adjuvant arthritis): 5.82 ± 1.05; Joint swelling degree (adjuvant arthritis): 0.78 ± 0.15 mm; Left and right paw swelling degree (adjuvant arthritis): 3.84 ± 0.88 mm; CNV Incidence (%) [4, 5]: 54.88%; Leakage Light spot number [4, 5]: 163; CNV Incidence (%) [4, 6]: 48.39%; Leakage Light spot number [4, 6]: 90; CNV Incidence (%) [4, 7]: 42.34%; Leakage Light spot number [4, 7]: 58; CNV Incidence (%) [4, 8]: 40.58%; Leakage Light spot number [4, 8]: 28"
C[C@H](NC(=O)CNC(=O)[C@H](CCCNC(=N)N)NC(=O)CCCCCc1cccc(N2C(=O)C=CC2=O)c1)C(=O)N[C@@H](CC(=O)O)C(=O)N[C@@H](CCCNC(=N)N)C(=O)N[C@@H](C)C(=O)NCC(=O)NCC(=O)NCC(=O)NCC(=O)N[C@@H](CCCNC(=N)N)C(=O)NCC(=O)N[C@@H](CC(=O)O)C(=O)O [X29] (X71-RGADRAGGGGRGD-OH),32200 ± 8030,57.6 ± 10.6,0.518,39.91 ± 0.25,0.5595 ± 0.0932,17.16,0.5284 ± 0.0661,21.76,0.5094 ± 0.1191,24.58,52.67,0.6256 ± 0.09549,58.02,0.5549 ± 0.02011,61.03,0.5151 ± 0.01135,0.27 ± 0.16,0.35 ± 0.18,0.36 ± 0.19,0.33 ± 0.17,"Swelling degree 1 h ([3]; 4.0 mg/kg once a day for 3 d): 0.22 ± 0.12 mg; Swelling degree 3 h ([3]; 4.0 mg/kg once a day for 3 d): 0.34 ± 0.15 mg; Swelling degree 5 h ([3]; 4.0 mg/kg once a day for 3 d): 0.35 ± 0.13 mg; Swelling degree 7 h ([3]; 4.0 mg/kg once a day for 3 d): 0.32 ± 0.17 mg; Clinical score (adjuvant arthritis): 5.72 ± 1.06; Joint swelling degree (adjuvant arthritis): 0.84 ± 0.16 mm; Left and right paw swelling degree (adjuvant arthritis): 3.72 ± 0.80 mm; CNV Incidence (%) [4, 5]: 54.21%; Leakage Light spot number [4, 5]: 161; CNV Incidence (%) [4, 6]: 45.70%; Leakage Light spot number [4, 6]: 85; CNV Incidence (%) [4, 7]: 40.88%; Leakage Light spot number [4, 7]: 56; CNV Incidence (%) [4, 8]: 39.13%; Leakage Light spot number [4, 8]: 27"
C[C@H](NC(=O)CNC(=O)[C@H](CCCNC(=N)N)NC(=O)CCCCCCCc1cccc(N2C(=O)C=CC2=O)c1)C(=O)N[C@@H](CC(=O)O)C(=O)N[C@@H](CCCNC(=N)N)C(=O)N[C@@H](C)C(=O)NCC(=O)NCC(=O)NCC(=O)NCC(=O)N[C@@H](CCCNC(=N)N)C(=O)NCC(=O)N[C@@H](CC(=O)O)C(=O)O [X31] (X66-RGADRAGGGGRGD-OH),28600 ± 6960,51.3 ± 11.3,0.582,35.58 ± 0.31,0.6142 ± 0.0512,9.06,0.6134 ± 0.1148,9.18,0.5450 ± 0.0838,19.31,41.92,0.7676 ± 0.04187,45.65,0.7183 ± 0.03361,63.50,0.4824 ± 0.04754,0.23 ± 0.18,0.37 ± 0.12,0.38 ± 0.16,0.33 ± 0.11,"Swelling degree 1 h ([3]; 4.0 mg/kg once a day for 3 d): 0.22 ± 0.12 mg; Swelling degree 3 h ([3]; 4.0 mg/kg once a day for 3 d): 0.36 ± 0.16 mg; Swelling degree 5 h ([3]; 4.0 mg/kg once a day for 3 d): 0.38 ± 0.15 mg; Swelling degree 7 h ([3]; 4.0 mg/kg once a day for 3 d): 0.35 ± 0.14 mg; Clinical score (adjuvant arthritis): 5.74 ± 1.12; Joint swelling degree (adjuvant arthritis): 0.84 ± 0.12 mm; Left and right paw swelling degree (adjuvant arthritis): 3.72 ± 0.98 mm; CNV Incidence (%) [4, 5]: 53.54%; Leakage Light spot number [4, 5]: 159; CNV Incidence (%) [4, 6]: 46.77%; Leakage Light spot number [4, 6]: 87; CNV Incidence (%) [4, 7]: 41.61%; Leakage Light spot number [4, 7]: 57; CNV Incidence (%) [4, 8]: 44.93%; Leakage Light spot number [4, 8]: 31"
C[C@H](NC(=O)CNC(=O)[C@H](CCCNC(=N)N)NC(=O)CCCCCCCCCCCCc1cccc(N2C(=O)C=CC2=O)c1)C(=O)N[C@@H](CC(=O)O)C(=O)N[C@@H](CCCNC(=N)N)C(=O)N[C@@H](C)C(=O)NCC(=O)NCC(=O)NCC(=O)NCC(=O)N[C@@H](CCCNC(=N)N)C(=O)NCC(=O)N[C@@H](CC(=O)O)C(=O)O [X36] (X65-RGADRAGGGGRGD-OH),28200 ± 8090,50.4 ± 10.1,0.592,34.9 ± 0.27,0.6051 ± 0.0633,10.41,0.4566 ± 0.1223,32.40,0.4401 ± 0.051,34.84,55.25,0.5915 ± 0.05135,60.38,0.5237 ± 0.03194,64.71,0.4664 ± 0.03733,0.29 ± 0.17,0.34 ± 0.18,0.43 ± 0.13,0.32 ± 0.15,"Swelling degree 1 h ([3]; 4.0 mg/kg once a day for 3 d): 0.23 ± 0.15 mg; Swelling degree 3 h ([3]; 4.0 mg/kg once a day for 3 d): 0.33 ± 0.13 mg; Swelling degree 5 h ([3]; 4.0 mg/kg once a day for 3 d): 0.35 ± 0.12 mg; Swelling degree 7 h ([3]; 4.0 mg/kg once a day for 3 d): 0.32 ± 0.17 mg; Clinical score (adjuvant arthritis): 5.71 ± 1.09; Joint swelling degree (adjuvant arthritis): 0.81 ± 0.12 mm; Left and right paw swelling degree (adjuvant arthritis): 4.00 ± 0.44 mm; CNV Incidence (%) [4, 5]: 50.51%; Leakage Light spot number [4, 5]: 150; CNV Incidence (%) [4, 6]: 49.46%; Leakage Light spot number [4, 6]: 92; CNV Incidence (%) [4, 7]: 40.15%; Leakage Light spot number [4, 7]: 55; CNV Incidence (%) [4, 8]: 43.48%; Leakage Light spot number [4, 8]: 30"
